Results reported in ChEMBL document CHEMBL4251601 (Eur J Med Chem, 2018).

Experiments:
[1] = target: Tyrosine-protein kinase Srms (Homo sapiens) (UniProt Q9H3Y6); test: Inhibition of recombinant human full length GST-tagged SRMS expressed in baculovirus expression system at 0.1 uM by TR-FRET assay relative to control
[2] = target: Glycogen synthase kinase-3 beta (Homo sapiens) (UniProt P49841); test: Inhibition of recombinant human full length His-tagged GSK3beta expressed in baculovirus expression system at 1 uM by Z'-Lyte assay relative to control
[3] = target: Proto-oncogene tyrosine-protein kinase receptor Ret (Homo sapiens) (UniProt P07949); test: Inhibition of recombinant human GST-tagged RET cytoplasmic domain (658 to 1114 residues) expressed in baculovirus expression system at 0.1 uM by Z'-Lyte assay relative to control
[4] = target: Tyrosine-protein kinase ITK/TSK (Homo sapiens) (UniProt Q08881); test: Inhibition of recombinant full length human GST-tagged ITK expressed in baculovirus expression system at 0.1 uM by TR-FRET assay relative to control
[5] = target: RAF proto-oncogene serine/threonine-protein kinase (Homo sapiens) (UniProt P04049); test: Inhibition of RAF1 (unknown origin) at 0.1 uM by TR-FRET assay relative to control
[6] = target: Tyrosine-protein kinase JAK3 (Homo sapiens) (UniProt P52333); test: Inhibition of recombinant human GST-tagged JAK3 expressed in baculovirus expression system at 0.1 uM by TR-FRET assay relative to control
[7] = target: Mitogen-activated protein kinase 14 (Homo sapiens) (UniProt Q16539); test: Inhibition of recombinant human full length GST-tagged p38alpha expressed in Escherichia coli at 0.1 uM by Z'-Lyte assay relative to control
[8] = target: Tyrosine-protein kinase receptor TYRO3 (Homo sapiens) (UniProt Q06418); test: Inhibition of recombinant human GST-tagged TYRO3 cytoplasmic domain (451 to 890 residues) expressed in baculovirus expression system at 1 uM by Z'-Lyte assay relative to control
[9] = Unbound Cmax in CD-1 mouse brain at 10 mg/kg, po administered as single dose by LC-MS/MS analysis; format: ADME, organism-based; details: in vivo
[10] = AUC (0 to infinity) in Sprague-Dawley rat at 2 mg/kg, iv administered as single dose by LC-MS/MS analysis; format: ADME, organism-based; design: dose 2 mg/kg, route intravenous, time infinity; details: Sprague-Dawley, in vivo
[11] = Half life in ICR mouse at 5 mg/kg, po administered as single dose by LC-MS/MS analysis; format: ADME, organism-based; details: in vivo
[12] = system: Epidermal growth factor receptor (Homo sapiens), P00533 [UNDEFINED MUTATION]; test: Inhibition of recombinant human EGFR d746 to 750 deletion/T790M mutant at 0.1 uM by TR-FRET assay relative to control
[13] = Cmax in Sprague-Dawley rat at 5 mg/kg, po administered as single dose by LC-MS/MS analysis; format: ADME, organism-based; design: dose 5 mg/kg, route oral; details: in vivo
[14] = target: Ephrin type-A receptor 2 (Homo sapiens) (UniProt P29317); test: Inhibition of recombinant human GST-tagged EPHA2 cytoplasmic domain expressed in baculovirus expression system at 1 uM by Z'-Lyte assay relative to control
U-87 MG [15] = test: Antitumor activity against luciferase-fused human U87MG cells orthotopically xenografted in nude mouse assessed as increase in mouse life span at 50 mg/kg, po qd for 5 weeks relative to control; format: functional, U-87MG ATCC; details: 840 h
[16] = target: cAMP-dependent protein kinase catalytic subunit alpha (Homo sapiens) (UniProt P17612); test: Inhibition of recombinant human His-tagged PKA expressed in Escherichia coli at 1 uM by Z'-Lyte assay relative to control
[17] = AUC (0 to infinity) in Sprague-Dawley rat at 5 mg/kg, po administered as single dose by LC-MS/MS analysis; format: ADME, organism-based; design: dose 5 mg/kg, route oral, time infinity; details: Sprague-Dawley, in vivo
[18] = target: Tyrosine-protein kinase JAK3 (Homo sapiens) (UniProt P52333); test: Inhibition of recombinant human GST-tagged JAK3 expressed in baculovirus expression system at 1 uM by TR-FRET assay relative to control
Mus musculus = test: Toxicity in nude mouse orthotopically xenografted with luciferase-fused human U87MG cells assessed as body weight loss at 50 mg/kg, po qd for 5 weeks and measured on day 28 relative to control; format: organism-based; details: in vivo, 840 h
[19] = target: Phosphatidylinositol 4,5-bisphosphate 3-kinase catalytic subunit delta isoform (Homo sapiens) (UniProt O00329); test: Inhibition of PI3K delta (unknown origin) at 1 uM by ADP-Glo assay relative to control
[20] = target: High affinity nerve growth factor receptor (Homo sapiens) (UniProt P04629); test: Inhibition of recombinant human His-tagged TRKA cytoplasmic domain expressed in baculovirus expression system at 0.1 uM by Z'-Lyte assay relative to control
[21] = target: Casein kinase I isoform gamma-1 (Homo sapiens) (UniProt Q9HCP0); test: Inhibition of recombinant full length human GST-tagged CK1gamma1 expressed in baculovirus expression system at 1 uM by Z'-Lyte assay relative to control
[22] = Cmax in CD-1 mouse brain at 10 mg/kg, po administered as single dose by LC-MS/MS analysis; format: ADME, organism-based; design: dose 10 mg/kg, route oral
[23] = Dissociation constant, pKa of the compound at pH 3 to 11 by pH metric method; format: physicochemical
U-87 MG [24] = test: Antitumor activity against luciferase-fused human U87MG cells orthotopically xenografted in nude mouse assessed as tumor growth inhibition at 6.25 mg/kg, po qd for 4 weeks by bioluminescence imaging relative to control; format: functional, U-87MG ATCC; details: 672 h, read-out: TGI
[25] = Oral bioavailability in ICR mouse at 5 mg/kg administered as single dose by LC-MS/MS analysis; format: ADME, organism-based; details: in vivo
[26] = target: Mitogen-activated protein kinase kinase kinase 14 (Homo sapiens, UniProt Q99558); test: Inhibition of recombinant human GST-tagged NIK expressed in baculovirus expression system using ser/thr-7 as substrate preincubated for 15 mins followed by ATP addition measured after 60 mins
[27] = target: Dual specificity protein kinase CLK1 (Homo sapiens) (UniProt P49759); test: Inhibition of recombinant human GST-tagged CLK1 expressed in Escherichia coli at 1 uM by Z'-Lyte assay relative to control
[28] = target: Cyclin-dependent kinase 4/cyclin D1 (Homo sapiens) (UniProt P11802+P24385); test: Inhibition of recombinant full length human GST-tagged CDK4/Cyclin-D1 expressed in baculovirus expression system at 0.1 uM by TR-FRET assay relative to control
[29] = target: Casein kinase I isoform alpha (Homo sapiens) (UniProt P48729); test: Inhibition of recombinant full length human GST-tagged CK1alpha expressed in baculovirus expression system at 0.1 uM by Z'-Lyte assay relative to control
[30] = target: CDK8/Cyclin C (Homo sapiens) (UniProt P49336+P24863); test: Inhibition of recombinant full length human His-tagged CDK8/Cyclin-C expressed in baculovirus expression system at 1 uM by LanthaScreen assay relative to control
U-87 MG [31] = test: Cell cycle arrest in human U87MG cells after assessed as accumulation at G1-phase after 24 hrs by propidium iodide staining based flow cytometry; format: functional, U-87MG ATCC

Chain of Tyrosine-protein kinase JAK3 (Homo sapiens) (P52333 whole entry, the tested form may be a part): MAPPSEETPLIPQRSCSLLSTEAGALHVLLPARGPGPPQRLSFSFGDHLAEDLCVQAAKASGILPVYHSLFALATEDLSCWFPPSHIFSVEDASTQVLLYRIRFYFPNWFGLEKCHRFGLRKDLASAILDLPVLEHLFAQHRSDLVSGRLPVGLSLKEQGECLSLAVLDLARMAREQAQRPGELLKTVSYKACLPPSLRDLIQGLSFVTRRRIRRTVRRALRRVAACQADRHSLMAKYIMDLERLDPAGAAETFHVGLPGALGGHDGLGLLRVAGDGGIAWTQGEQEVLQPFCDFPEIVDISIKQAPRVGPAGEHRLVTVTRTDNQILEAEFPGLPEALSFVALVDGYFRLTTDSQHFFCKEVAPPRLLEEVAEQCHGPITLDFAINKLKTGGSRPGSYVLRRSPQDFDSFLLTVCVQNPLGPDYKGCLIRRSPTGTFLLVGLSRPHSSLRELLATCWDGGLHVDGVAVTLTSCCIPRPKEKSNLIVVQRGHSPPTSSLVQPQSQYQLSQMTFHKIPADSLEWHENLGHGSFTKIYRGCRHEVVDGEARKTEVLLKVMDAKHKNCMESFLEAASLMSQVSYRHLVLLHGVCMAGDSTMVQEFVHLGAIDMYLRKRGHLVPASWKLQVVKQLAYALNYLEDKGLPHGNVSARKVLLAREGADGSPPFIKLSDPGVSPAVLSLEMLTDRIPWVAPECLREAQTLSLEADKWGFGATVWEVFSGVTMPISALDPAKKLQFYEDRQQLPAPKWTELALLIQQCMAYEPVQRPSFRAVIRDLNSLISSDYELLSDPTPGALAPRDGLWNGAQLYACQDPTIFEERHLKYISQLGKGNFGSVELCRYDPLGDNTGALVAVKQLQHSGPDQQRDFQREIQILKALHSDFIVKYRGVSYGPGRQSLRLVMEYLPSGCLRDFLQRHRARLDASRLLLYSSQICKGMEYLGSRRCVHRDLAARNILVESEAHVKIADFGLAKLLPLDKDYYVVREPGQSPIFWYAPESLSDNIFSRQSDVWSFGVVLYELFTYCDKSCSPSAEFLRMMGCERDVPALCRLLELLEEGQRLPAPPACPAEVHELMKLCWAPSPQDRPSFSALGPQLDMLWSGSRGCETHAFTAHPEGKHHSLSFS
Chain of High affinity nerve growth factor receptor (Homo sapiens) (P04629 33-796 limits assumed): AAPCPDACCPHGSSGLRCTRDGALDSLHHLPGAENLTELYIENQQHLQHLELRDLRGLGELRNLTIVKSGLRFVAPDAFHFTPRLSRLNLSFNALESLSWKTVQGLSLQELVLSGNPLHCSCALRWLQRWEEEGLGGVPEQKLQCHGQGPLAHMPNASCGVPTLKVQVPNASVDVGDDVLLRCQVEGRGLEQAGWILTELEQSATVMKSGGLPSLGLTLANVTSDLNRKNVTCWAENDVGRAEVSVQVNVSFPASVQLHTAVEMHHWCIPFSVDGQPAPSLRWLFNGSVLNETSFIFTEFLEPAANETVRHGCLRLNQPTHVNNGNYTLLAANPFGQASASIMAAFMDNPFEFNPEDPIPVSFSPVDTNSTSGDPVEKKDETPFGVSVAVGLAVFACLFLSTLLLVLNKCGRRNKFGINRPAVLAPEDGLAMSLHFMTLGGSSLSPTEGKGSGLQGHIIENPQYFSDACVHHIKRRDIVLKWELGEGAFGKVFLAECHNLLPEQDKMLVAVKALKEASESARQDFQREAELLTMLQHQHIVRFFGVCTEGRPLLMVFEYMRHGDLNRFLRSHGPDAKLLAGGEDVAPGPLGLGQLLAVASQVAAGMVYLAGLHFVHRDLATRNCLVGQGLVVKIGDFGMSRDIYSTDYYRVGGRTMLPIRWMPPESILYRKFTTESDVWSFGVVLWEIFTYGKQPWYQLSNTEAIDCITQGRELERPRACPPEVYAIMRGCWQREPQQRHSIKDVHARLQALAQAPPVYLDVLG
Chain of Tyrosine-protein kinase receptor TYRO3 (Homo sapiens) (Q06418 whole entry, the tested form may be a part): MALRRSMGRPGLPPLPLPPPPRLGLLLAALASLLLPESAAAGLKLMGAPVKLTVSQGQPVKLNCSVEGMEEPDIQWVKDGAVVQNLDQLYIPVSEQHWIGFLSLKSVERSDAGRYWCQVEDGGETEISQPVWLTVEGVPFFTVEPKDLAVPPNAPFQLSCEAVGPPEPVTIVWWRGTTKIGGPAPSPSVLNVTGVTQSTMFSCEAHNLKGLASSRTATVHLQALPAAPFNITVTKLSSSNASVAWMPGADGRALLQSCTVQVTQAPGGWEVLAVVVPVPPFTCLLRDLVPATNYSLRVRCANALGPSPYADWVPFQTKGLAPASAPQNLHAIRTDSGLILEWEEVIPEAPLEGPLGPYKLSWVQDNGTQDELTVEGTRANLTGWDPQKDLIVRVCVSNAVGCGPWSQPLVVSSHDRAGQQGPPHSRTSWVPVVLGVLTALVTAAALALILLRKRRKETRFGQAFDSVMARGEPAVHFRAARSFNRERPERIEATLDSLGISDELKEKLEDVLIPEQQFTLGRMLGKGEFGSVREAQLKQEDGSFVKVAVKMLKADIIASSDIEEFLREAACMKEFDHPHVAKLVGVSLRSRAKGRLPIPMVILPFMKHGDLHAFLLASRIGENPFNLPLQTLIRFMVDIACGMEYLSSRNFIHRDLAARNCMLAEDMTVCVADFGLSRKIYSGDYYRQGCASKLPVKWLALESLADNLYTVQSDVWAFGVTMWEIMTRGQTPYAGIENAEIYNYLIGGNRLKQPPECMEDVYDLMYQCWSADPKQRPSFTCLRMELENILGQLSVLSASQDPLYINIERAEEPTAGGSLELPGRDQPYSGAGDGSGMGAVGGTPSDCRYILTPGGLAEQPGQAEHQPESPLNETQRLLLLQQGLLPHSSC
Chain of Phosphatidylinositol 4,5-bisphosphate 3-kinase catalytic subunit delta isoform (Homo sapiens) (O00329 whole entry, the tested form may be a part, canonical isoform): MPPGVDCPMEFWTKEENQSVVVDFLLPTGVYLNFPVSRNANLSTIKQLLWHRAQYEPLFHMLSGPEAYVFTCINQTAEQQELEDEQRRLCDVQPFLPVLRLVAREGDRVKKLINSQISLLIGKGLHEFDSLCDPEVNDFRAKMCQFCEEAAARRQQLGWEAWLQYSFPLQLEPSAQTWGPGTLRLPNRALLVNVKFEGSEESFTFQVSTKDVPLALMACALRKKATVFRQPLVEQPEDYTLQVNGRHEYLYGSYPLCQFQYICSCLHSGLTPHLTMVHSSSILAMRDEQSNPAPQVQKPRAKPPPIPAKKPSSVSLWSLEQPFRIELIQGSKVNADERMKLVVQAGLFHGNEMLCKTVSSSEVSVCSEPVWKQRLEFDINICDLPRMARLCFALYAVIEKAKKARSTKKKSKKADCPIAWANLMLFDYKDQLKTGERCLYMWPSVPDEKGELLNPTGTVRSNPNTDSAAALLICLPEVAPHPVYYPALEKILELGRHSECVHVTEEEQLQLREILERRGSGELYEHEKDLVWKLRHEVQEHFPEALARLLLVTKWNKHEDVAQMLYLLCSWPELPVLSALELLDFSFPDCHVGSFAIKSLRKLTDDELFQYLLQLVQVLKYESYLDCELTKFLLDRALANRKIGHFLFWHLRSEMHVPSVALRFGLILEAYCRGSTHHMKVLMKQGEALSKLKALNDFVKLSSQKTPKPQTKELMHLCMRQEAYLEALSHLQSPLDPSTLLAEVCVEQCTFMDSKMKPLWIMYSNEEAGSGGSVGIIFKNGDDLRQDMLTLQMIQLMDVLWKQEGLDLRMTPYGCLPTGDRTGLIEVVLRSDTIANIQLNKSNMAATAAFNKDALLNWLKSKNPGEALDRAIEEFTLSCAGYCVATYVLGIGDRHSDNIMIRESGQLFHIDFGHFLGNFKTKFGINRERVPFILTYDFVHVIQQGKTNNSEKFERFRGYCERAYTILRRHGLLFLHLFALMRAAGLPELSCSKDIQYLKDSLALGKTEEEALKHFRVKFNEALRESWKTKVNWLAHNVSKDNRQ
Chain of Mitogen-activated protein kinase kinase kinase 14 (Q99558 whole entry): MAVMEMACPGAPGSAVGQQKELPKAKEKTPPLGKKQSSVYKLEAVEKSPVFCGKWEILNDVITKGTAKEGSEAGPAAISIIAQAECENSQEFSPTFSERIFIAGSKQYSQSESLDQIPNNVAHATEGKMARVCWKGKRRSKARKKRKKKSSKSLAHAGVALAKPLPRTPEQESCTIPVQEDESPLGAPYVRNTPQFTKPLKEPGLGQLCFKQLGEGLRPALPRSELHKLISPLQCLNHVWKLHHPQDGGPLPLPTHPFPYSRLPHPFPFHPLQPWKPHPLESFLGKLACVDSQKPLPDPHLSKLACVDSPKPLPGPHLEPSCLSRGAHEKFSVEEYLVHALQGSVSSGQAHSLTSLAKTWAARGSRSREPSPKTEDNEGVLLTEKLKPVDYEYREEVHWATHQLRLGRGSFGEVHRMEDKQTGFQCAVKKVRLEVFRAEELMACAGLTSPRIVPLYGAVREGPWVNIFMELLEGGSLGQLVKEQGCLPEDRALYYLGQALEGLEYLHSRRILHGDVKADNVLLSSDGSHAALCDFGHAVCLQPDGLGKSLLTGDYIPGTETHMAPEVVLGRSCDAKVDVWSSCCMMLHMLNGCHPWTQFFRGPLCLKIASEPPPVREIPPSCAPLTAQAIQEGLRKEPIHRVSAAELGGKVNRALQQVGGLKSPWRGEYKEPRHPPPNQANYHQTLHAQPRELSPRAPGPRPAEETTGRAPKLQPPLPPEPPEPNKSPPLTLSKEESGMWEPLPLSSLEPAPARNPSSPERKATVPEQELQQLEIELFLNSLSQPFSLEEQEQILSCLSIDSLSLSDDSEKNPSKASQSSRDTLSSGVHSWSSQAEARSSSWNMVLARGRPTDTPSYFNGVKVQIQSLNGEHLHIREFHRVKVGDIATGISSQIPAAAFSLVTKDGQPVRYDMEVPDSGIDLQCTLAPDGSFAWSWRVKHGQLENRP
Chain of Casein kinase I isoform alpha (Homo sapiens) (P48729 2-337 limits assumed): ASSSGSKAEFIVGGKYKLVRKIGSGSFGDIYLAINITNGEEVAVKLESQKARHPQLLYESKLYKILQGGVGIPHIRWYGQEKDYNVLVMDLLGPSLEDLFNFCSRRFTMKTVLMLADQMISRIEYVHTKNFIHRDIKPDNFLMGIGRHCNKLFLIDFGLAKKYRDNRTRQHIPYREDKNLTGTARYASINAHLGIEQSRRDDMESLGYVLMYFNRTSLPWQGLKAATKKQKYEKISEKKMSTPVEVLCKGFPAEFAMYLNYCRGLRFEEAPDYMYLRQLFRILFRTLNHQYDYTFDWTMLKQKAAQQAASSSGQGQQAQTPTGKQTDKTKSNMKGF

CC1=Nc2c(F)cc(-c3nc(Nc4ccc(C5CCN(C)CC5)cn4)ncc3F)cc2C12CCCC2 [CROZBACICLIB]
inhibition [1]: 20% | inhibition [2]: 81% | inhibition [3]: 0% | inhibition [4]: -8% | inhibition [5]: -10% | inhibition [6]: 56% | inhibition [7]: 0% | inhibition [8]: 4% | fCmax [9]: 1.03 ng/g | AUC(0-inf) [10]: 959 ng·h/mL | half-life [11]: 8.38 h | inhibition [12]: 26% | Cmax [13]: 134 ng/mL | inhibition [14]: 4% | ILS at 50 mg/kg (U-87 MG [15]): 162% | inhibition [16]: 8% | AUC(0-inf) [17]: 1580 ng·h/mL | inhibition [18]: 92% | Activity (Mus musculus): 4.2% | inhibition [19]: 14% | inhibition [20]: 2% | inhibition [21]: 5% | Cmax [22]: 2580 ng/g | pKa [23]: 8.19 | inhibition in vivo at 6.25 mg/kg (U-87 MG [24]): 79% | bioavailability [25]: 75% | IC50 [26]: 45 nM | inhibition [27]: 99% | inhibition [28]: 106% | inhibition [29]: -3% | inhibition [30]: 85% | Emax (U-87 MG [31]): 41.1% | Activity (U-87 MG [31]; U-87MG ATCC): Dose-dependent effect
